Consider eight compounds from article PMC2248282 (Chemmedchem, 2007).

The term half-life denotes the time in which the quantity being followed falls by half. Read a high half-life as slow decline. What is called IC50 is the concentration that inhibits the measured activity by half.

The nature of data set [1]: LC-MS stability in phosphate buffer saline at 37°C. It counts as physicochemical.
In the next data set the test system is T. b. brucei (Bs427). Kind of data set: In vitro trypanocidal assay. The settings on record: for activity against T. b. brucei (in words): in vitro; for IC50: Trypanosoma brucei, read-out: IC50 Bs427. It counts as cell-based.
The test system of data set [2] is human embryonic kidney cells (HEK 293T). Kind of data set: Cytotoxicity to mammalian cells. It counts as cell-based. The settings on record: read-out: IC50 HEK 293T.
Setting [3] is: phosphate buffered saline, pH 7.2.

“2,2-Dimethyl-thiopropionic acid S-(2-{[5-(2,4-dimethoxy-benzyloxycarbamoyl)-2,2-dimethyl-[1,3]dioxolan-4-ylmethoxy]-phenoxy-phosphoryloxy}-ethyl) ester [Compound 3d]”: the half-life in data set [1] (PBS (pH 7.2) at 37°C, LC-MS, disappearance of molecular ion) is 128 min. For the same compound, in the data set on T. b. brucei (Bs427), the “activity against T. b. brucei (in words)” value is given as “highest activity”.
As to `CC1(C)OC(COP(=O)(OCCSC(=O)C(C)(C)C)OCCSC(=O)C(C)(C)C)C(C(=O)NO)O1` (stereo not drawn) [Compound 3a, 2,2-Dimethyl-thiopropionic acid S-{2-[[2-(2,2-dimethyl-propionylsulfanyl)-ethoxy]-(5-hydroxycarbamoyl-2,2-dimethyl-[1,3]dioxolan-4-ylmethoxy)-phosphoryloxy]-ethyl} ester], the results for the 50% inhibitory concentration (IC50) (in data set [2]; in the data set with T. b. brucei (Bs427)) were over 200 µM and 4.23 µM, respectively. Besides, in the data set on T. b. brucei (Bs427), the “activity against T. b. brucei (in words)” value is reported as “highest activity”.
For `COC(=O)C(C)NP(=O)(OCC1OC(C)(C)OC1C(=O)NO)Oc1ccccc1` (stereo not drawn) [Compound 3b, 2-[(5-Hydroxycarbamoyl-2,2-dimethyl-[1,3]dioxolan-4-ylmethoxy)-phenoxy-phosphorylamino]-propionic acid methyl ester], the half-maximal inhibitory concentration (IC50) was over 200 µM in data set [2] and 6.95 µM in the data set on T. b. brucei (Bs427). This compound also gave a half-life in data set [1] (setting [3]) of 300 min. For the same compound, in the data set on T. b. brucei (Bs427), the “activity against T. b. brucei (in words)” value is reported as “highest activity”.
Consider `COC(=O)C(C)NP(=O)(OCC1OC(C)(C)OC1C(=O)NO)Oc1ccc([N+](=O)[O-])cc1` (stereo not drawn) [Compound 3c, 2-[(5-Hydroxycarbamoyl-2,2-dimethyl-[1,3]dioxolan-4-ylmethoxy)-(4-nitro-phenoxy)-phosphorylamino]-propionic acid methyl ester], for which, in data set [2], the IC50 is over 200 µM. This compound also showed a half-life at 1 mg/mL in data set [1] (setting [3]) of 51 min. In the data set with T. b. brucei (Bs427), the half-maximal inhibitory concentration (IC50) worked out at 43.8 µM and the “activity against T. b. brucei (in words)” value was “moderate activities”.
The like results for `CC1(C)OC(COP(=O)(OCOC(=O)C(C)(C)C)OCOC(=O)C(C)(C)C)C(C(=O)NO)O1` (stereo not drawn) [Compound 3e, (5-(hydroxycarbamoyl)-2,2-dimethyl-1,3-dioxolan-4-yl)methyl bis((pivaloyloxy)methyl) phosphate] were, in that order, over 200 µM, 31.8 min, 20.2 µM and “moderate activities”.
As to `COc1ccc(CONC(=O)C2OC(C)(C)OC2COP(=O)(OCCSC(=O)C(C)(C)C)OCCSC(=O)C(C)(C)C)c(OC)c1` (stereo not drawn) [Compound 24, 2,2-dimethyl-thiopropionic acid S-(2-{[5-(2,4-dimethoxy-benzyloxycarbamoyl)-2,2-dimethyl-[1,3]dioxolan-4-ylmethoxy]-[2-(2,2-dimethyl-propionylsulfanyl)-ethoxy]-phosphoryloxy}-ethyl) ester], in data set [2], the IC50 is over 200 µM. Also, in the data set with T. b. brucei (Bs427), the IC50 came to 25 µM and the “activity against T. b. brucei (in words)” value is reported as “improved activity”.
As for `COc1ccc(CONC(=O)C2OC(C)(C)OC2COP(=O)(OCCSC(=O)C(C)(C)C)Oc2ccccc2)cc1` (stereo not drawn) [Compound 26a, 2,2-Dimethyl-thiopropionic acid S-(2-{[5-(4-methoxy-benzyloxycarbamoyl)-2,2-dimethyl-[1,3]dioxolan-4-ylmethoxy]-phenoxy-phosphoryloxy}-ethyl) ester], the IC50 in data set [2] is over 200 µM; with T. b. brucei (Bs427), over 100 µM.
The corresponding values for `COc1ccc(CONC(=O)C2OC(C)(C)OC2COP(=O)(OCCSC(=O)C(C)(C)C)Oc2ccccc2)c(OC)c1` (stereo not drawn) [Compound 26b, 2,2-Dimethyl-thiopropionic acid S-(2-{[5-(2,4-dimethoxy-benzyloxycarbamoyl)-2,2-dimethyl-[1,3]dioxolan-4-ylmethoxy]-phenoxy-phosphoryloxy}-ethyl) ester] are over 200 µM and over 100 µM.
